These results are taken from US9988379B2, “GPR40 receptor agonist, methods of preparing the same, and pharmaceutical compositions containing the same as an active agent” (LG CHEM, LTD., priority 2012, dated 2018).

This assay deals with T1, human GPR40 (Homo sapiens, UniProt O14842).
T1 construct: expressed in transfected cells; host or cells: CHO-K1
T1 sequence (O14842 whole entry): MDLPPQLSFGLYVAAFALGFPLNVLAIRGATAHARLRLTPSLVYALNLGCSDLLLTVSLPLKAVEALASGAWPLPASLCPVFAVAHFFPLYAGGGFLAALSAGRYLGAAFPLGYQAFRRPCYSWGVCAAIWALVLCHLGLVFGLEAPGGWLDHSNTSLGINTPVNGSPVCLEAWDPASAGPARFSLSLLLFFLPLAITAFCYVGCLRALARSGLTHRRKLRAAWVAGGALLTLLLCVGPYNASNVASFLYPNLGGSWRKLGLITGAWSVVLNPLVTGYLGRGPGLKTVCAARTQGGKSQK
As to the kind of experiment: Induction of Ca2+ (calcium flux assay) using human GPR40 expression cell line. It is filed as cell-based. As to conditions: read-out: EC0.5. In short, it runs like this: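 Read-out is intracellular Ca2+ flux on FlexStation after test compounds (DMSO stocks diluted 200-fold in assay buffer) were added to dye-loaded human GPR40/CHO-K1 cells. Cells had been cultured 24 h, then incubated 1 h at 37° C with Calcium 5 dye, HBSS-HEPES pH 7.4; EC0.5 from concentration plot.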
Take `CC#C[C@@H](CC(=O)O)c1ccc(OCc2ccc3nn(CCOCC)cc3c2)cc1` [Example 160, (S)-3-{4-[2-(2-ethoxy-ethyl)-2H-indazol-5-ylmethoxy]-phenyl}-hex-4-ynoic acid]: the EC50 fell in the range of 50 to 500 nM.

`CC#C[C@@H](CC(=O)O)c1ccc(OCc2ccc3c(c2)n(C)c(=O)n3Cc2ccccc2)cc1` [Example 161, (S)-3-[4-(1-benzyl-3-methyl-2-oxo-2,3-dihydro-1H-benzoimidazol-5-ylmethoxy)-phenyl]-hex-4-ynoic acid]: the EC50 stood at 5 nM.

As to `N#CC(CC(=O)O)c1ccc(OCc2ccc3c(cnn3Cc3ccccc3)c2)cc1` (centres unmarked) [Example 162, 3-[4-(1-benzyl-1H-indazol-5-ylmethoxy)-phenyl]-3-cyano-propanoic acid], the EC50 was 20 nM. For the molecule `CC#C[C@@H](CC(=O)O)c1ccc(OCc2ccc3c(cnn3CC3CCCC3)c2)cc1` [Example 163, (S)-3-[4-(1-cyclopentylmethyl-1H-indazol-5-ylmethoxy)-phenyl]-hex-4-ynoic acid], the EC50 was in the range of 1 to 50 nM.

With `CC#C[C@@H](CC(=O)O)c1ccc(OCc2ccc3c(cnn3C3CCCC3)c2)cc1` [Example 164, (S)-3-[4-(1-cyclopentyl-1H-indazol-5-ylmethoxy)-phenyl]-hex-4-ynoic acid], the EC50 was 1 to 50 nM. The same measure for `CC#C[C@@H](CC(=O)O)c1ccc(OCc2ccc3c(cnn3CC3CC3)c2)cc1` [Example 165, (S)-3-[4-(1-cyclopropylmethyl-1H-indazol-5-ylmethoxy)-phenyl]-hex-4-ynoic acid]: 1 to 50 nM; for `CC#C[C@@H](CC(=O)O)c1ccc(OCc2ccc3nnn(CC(C)C)c3c2)cc1` [Example 166, (S)-3-[4-(3-isobutyl-3H-benzotriazol-5-ylmethoxy)-phenyl]-hex-4-ynoic acid]: 50 to 500 nM. For `O=C(O)C1CC1c1ccc(OCc2ccc3cnn(Cc4ccccc4)c3c2)cc1` (centres unmarked) [Example 167, 2-[4-(1-benzyl-1H-indazol-6-ylmethoxy)-phenyl]-cyclopropane carboxylic acid], the EC50 worked out at 60 nM. The same measure for `CC#C[C@@H](CC(=O)O)c1ccc(OCc2cc(C)c3c(cnn3C(C)C)c2)cc1` [Example 168, (S)-3-[4-(1-isopropyl-7-methyl-1H-indazol-5-ylmethoxy)-phenyl]-hex-4-ynoic acid]: 1 to 50 nM; for `CC#C[C@@H](CC(=O)O)c1ccc(OCc2cc(C)c3c(cnn3CC3CCCC3)c2)cc1` [Example 169, (S)-3-[4-(1-cyclopentylmethyl-7-methyl-1H-indazol-5-ylmethoxy)-phenyl]-hex-4-ynoic acid]: 1 to 50 nM; for `CC#C[C@@H](CC(=O)O)c1ccc(OCc2ccc3c(c2)c(C)nn3CC(C)C)cc1` [Example 170, (S)-3-[4-(1-isobutyl-3-methyl-1H-indazol-5-ylmethoxy)-phenyl]-hex-4-ynoic acid]: 1 to 50 nM. With `CC#C[C@@H](CC(=O)O)c1ccc(OCc2cc(C)c3c(cnn3C3CCCC3)c2)cc1` [Example 171, (S)-3-[4-(1-cyclopentyl-7-methyl-1H-indazol-5-ylmethoxy)-phenyl]-hex-4-ynoic acid] the figure was 1 to 50 nM; with `CC#C[C@@H](CC(=O)O)c1ccc(OCc2ccc3cnn(C4CCCC4)c3c2)cc1` [Example 172, (S)-3-[4-(1-cyclopentyl-1H-indazol-6-ylmethoxy)-phenyl]-hex-4-ynoic acid], 1 to 50 nM. On to `CC#C[C@@H](CC(=O)O)c1ccc(OCc2ccc3cnn(CC4CCCC4)c3c2)cc1` [Example 173, (S)-3-[4-(1-cyclopentylmethyl-1H-indazol-6-ylmethoxy)-phenyl]-hex-4-ynoic acid], for which the EC50 lay within 1 to 50 nM. As to `CC#C[C@@H](CC(=O)O)c1ccc(OCc2ccc3c(cnn3CCS(C)(=O)=O)c2)cc1` [Example 174, (S)-3-{4-[1-(2-methanesulfonyl-ethyl)-1H-indazol-5-ylmethoxy]-phenyl}-hex-4-ynoic acid], the EC50 was at least 500 nM.

With `CC#C[C@@H](CC(=O)O)c1ccc(OCc2ccc3c(cnn3CCOC)c2)cc1` [Example 175, (S)-3-{4-[1-(2-methoxy-ethyl)-1H-indazol-5-ylmethoxy]-phenyl}-hex-4-ynoic acid], the EC50 fell in the range of 50 to 500 nM. `CC#C[C@@H](CC(=O)O)c1ccc(OCc2ccc3c(cnn3CCCOC)c2)cc1` [Example 176, (S)-3-{4-[1-(3-methoxy-propyl)-1H-indazol-5-ylmethoxy]-phenyl}-hex-4-ynoic acid]: the EC50 is 40 nM. The same measure for `CC#C[C@@H](CC(=O)O)c1ccc(OCc2ccc3cnn(CC4(C)COC4)c3c2)cc1` [Example 177, (S)-3-{4-[1-(3-methyl-oxetan-3-ylmethyl)-1H-indazol-6-ylmethoxy]-phenyl}-hex-4-ynoic acid]: 1 to 50 nM. With `CC#C[C@@H](CC(=O)O)c1ccc(OCc2ccc3c(C)nn(CC(C)C)c3c2)cc1` [Example 178, (S)-3-[4-(1-isobutyl-3-methyl-1H-indazol-6-ylmethoxy)-phenyl]-hex-4-ynoic acid] the figure was 1 to 50 nM; with `CC#C[C@@H](CC(=O)O)c1ccc(OCc2ccc3c(C)n(CC(C)C)nc3c2)cc1` [Example 179, (S)-3-[4-(2-isobutyl-3-methyl-2H-indazol-6-ylmethoxy)-phenyl]-hex-4-ynoic acid], 1 to 50 nM. With `CC#C[C@@H](CC(=O)O)c1ccc(OCc2ccc3cnn(C(C)C)c3c2)cc1` [Example 180, (S)-3-[4-(1-isopropyl-1H-indazol-6-ylmethoxy)-phenyl]-hex-4-ynoic acid] the figure was 1 to 50 nM; with `CC#C[C@@H](CC(=O)O)c1ccc(OCc2ccc3onc(CC(C)C)c3c2)cc1` [Example 181, (S)-3-[4-(3-isobutyl-benzo[d]isoxazol-5-ylmethoxy)-phenyl]-hex-4-ynoic acid], 6 nM. As to `CC#C[C@@H](CC(=O)O)c1ccc(OCc2ccc3cnn(CC(C)(C)C)c3c2)cc1` [Example 182, (S)-3-{4-[1-(2,2-dimethyl-propyl)-1H-indazol-6-ylmethoxy]-phenyl}-hex-4-ynoic acid], the EC50 fell in the range of 1 to 50 nM. The same measure for `CC#C[C@@H](CC(=O)O)c1ccc(OCc2cc3cnn(CC(C)C)c3cc2C)cc1` [Example 183, (S)-3-[4-(1-isobutyl-6-methyl-1H-indazol-5-ylmethoxy)-phenyl]-hex-4-ynoic acid]: 1 to 50 nM. In the case of `CC#C[C@@H](CC(=O)O)c1ccc(OCc2cccc3c2cnn3CC(C)C)cc1` [Example 184, (S)-3-[4-(1-isobutyl-1H-indazol-4-ylmethoxy)-phenyl]-hex-4-ynoic acid], the EC50 is 1 to 50 nM. With `CC#C[C@@H](CC(=O)O)c1ccc(OCc2ccc3c(C)nn(C(C)C)c3c2)cc1` [Example 185, (S)-3-[4-(1-isopropyl-3-methyl-1H-indazol-6-ylmethoxy)-phenyl]-hex-4-ynoic acid], the EC50 fell in the range of 1 to 50 nM. As to `CC#C[C@@H](CC(=O)O)c1ccc(OCc2ccc3c(c2)c(CC(C)C)nn3C)cc1` [Example 186, (S)-3-[4-(3-isobutyl-1-methyl-1H-indazol-5-ylmethoxy)-phenyl]-hex-4-ynoic acid], the EC50 lay in the range of 1 to 50 nM.

`CC#C[C@@H](CC(=O)O)c1ccc(OCc2ccc3c(c2)c(C)nn3C(C)C)cc1` [Example 187, (S)-3-[4-(1-isopropyl-3-methyl-1H-indazol-5-ylmethoxy)-phenyl]-hex-4-ynoic acid]: the EC50 is 1 to 50 nM. Take `CC#C[C@@H](CC(=O)O)c1ccc(OCc2ccc3c(COC)nn(CC(C)C)c3c2)cc1` [Example 188, (S)-3-[4-(1-isobutyl-3-methoxymethyl-1H-indazol-6-ylmethoxy)-phenyl]-hex-4-ynoic acid]: the EC50 turned out to be 5 nM. With `CC#C[C@@H](CC(=O)O)c1ccc(OCc2cccc3c2c(F)nn3CC(C)C)cc1` [Example 189, (S)-3-[4-(3-fluoro-1-isobutyl-1H-indazol-4-ylmethoxy)-phenyl]-hex-4-ynoic acid] the figure was 1 to 50 nM. For `CC#C[C@@H](CC(=O)O)c1ccc(OCc2cccc3c2cnn3C(C)C)cc1` [Example 190, (S)-3-[4-(1-isopropyl-1H-indazol-4-ylmethoxy)-phenyl]-hex-4-ynoic acid], the EC50 was found to be 40 nM. The same measure for `CC#C[C@@H](CC(=O)O)c1ccc(OCc2ccc3c(COCC)nn(CC(C)C)c3c2)cc1` [Example 191, (S)-3-[4-(3-ethoxymethyl-1-isobutyl-1H-indazol-6-ylmethoxy)-phenyl]-hex-4-ynoic acid]: 10 nM; for `CC#C[C@@H](CC(=O)O)c1ccc(OCc2cccc3c2c(Cl)nn3CC(C)C)cc1` [Example 192, (S)-3-[4-(3-chloro-1-isobutyl-1H-indazol-4-ylmethoxy)-phenyl]-hex-4-ynoic acid]: 30 nM; for `CC#C[C@@H](CC(=O)O)c1ccc(OCc2ccc3c(COC(C)C)nn(CC(C)C)c3c2)cc1` [Example 193, (S)-3-[4-(1-isobutyl-3-isopropoxymethyl-1H-indazol-6-ylmethoxy)-phenyl]-hex-4-ynoic acid]: 3 nM. With `CC#C[C@@H](CC(=O)O)c1ccc(OCc2cccc3c2c(F)nn3C(C)C)cc1` [Example 194, (S)-3-[4-(3-fluoro-1-isopropyl-1H-indazol-4-ylmethoxy)-phenyl]-hex-4-ynoic acid] the figure was 1 to 50 nM; with `CC#C[C@@H](CC(=O)O)c1ccc(OCc2cccc3c(Br)nn(C)c23)cc1` [Example 195, (S)-3-[4-(3-bromo-1-methyl-1H-indazol-7-ylmethoxy)-phenyl]-hex-4-ynoic acid], 6 nM. For `CC#C[C@@H](CC(=O)O)c1ccc(OCc2ccc3c(COC)nn(CC(C)C)c3c2C)cc1` [Example 196, (S)-3-[4-(1-isobutyl-3-methoxymethyl-7-methyl-1H-indazol-6-ylmethoxy)-phenyl]-hex-4-ynoic acid], the EC50 turned out to be 5 nM.

On to `CC#C[C@@H](CC(=O)O)c1ccc(OCc2cccc3c2cnn3CCCC)cc1` [Example 197, (S)-3-[4-(1-butyl-1H-indazol-4-ylmethoxy)-phenyl]-hex-4-ynoic acid], for which the EC50 is 5 nM.
